From patent EP0458214A1, “Bicyclic 1-azacycloalcanes” (BOEHRINGER INGELHEIM KG, priority 1990, dated 1991) come the findings set out here.

By Ki is commonly meant the equilibrium dissociation constant of an inhibitor or competing ligand from its target.

Residue numbers refer to the chain shown, from its start.

The target in assay [1] is muskarinen Rezeptoren. In words: Receptor binding studies (Tabelle A), radioligand displacement. The following applies: Radioligand L(+)cis-[2-Methyl-³H]-N,N,N-trimethyl-1, 3-dioxolan-4-methanammonium-jodid; Organ: Cerebraler Cortex (Ratte). The text has this: Die zur Synthese notwendigen Ausgangsverbindungen, die entsprechenden Hydroxyazabicycloalkane, sind aus dem Stand der Technik bekannt, [drawing 9] so z.B. für n = O aus JACS 74, 2215 (1952) (IIa), J. Org. Chem. 33, 4376 (1968) (IIb), der europäischen Patentanmeldung 307 140 (III) und J. Pharm. Science 52, 331 (1954) (IV). Ausgangsverbindungen (R = H), in denen n = 1 oder 2 bedeutet, sind durch Reduktion der entsprechenden Alkylester (X -R = COOAlkyl) erhältlich. Ausgehend von den entsprechenden Ketonen lassen sich die Thiole der allgemeinen Formeln II und III in Analogie zu dem in J. Chem. 43, 1965 beschriebenen Verfahren herstellen. Ist R in der allgemeinen Formel I ein aromatischer oder heteroaromatischer Rest, so können die Verbindungen der allgemeinen Formel I unter Anwendung der Mitsunobu Reaktion (O. Mitusunobu in Synthesis, 1, 1981, Georg Thieme Verlag, Stuttgart; J. C. S. Perkin I, Seite 462, 1975) durch Umsetzung der entsprechenden hydroxysubstituierten Reaktanden (Formel I R=H, Reagenz HOR, R=Phenyl,Heterocyclus) in Gegenwart von Azodicarbonsäurediethylester und Triphenylphospin erhalten werden. Die Umsetzung erfolgt im allgemeinen in inerten organischen Lösungsmitteln bei Raumtemperatur. Die Verbindungen der allgemeinen Formel I besitzen wertvolle pharmakologische Eigenschaften. So zeigen die Verbindungen in Bindungsstudien Affinitäten zu muskarinen Rezeptoren und muskarin-agonistische GTP-Shifts (GTP = Guanosintriphosphat). (Birdsall, N.I.M., E.C. Hulme and I.M. Stockton 1984 in T.I.P.S. Supplement, Proc. Internat. Symposium on Subtypes of Muscarinic Receptors, Ed. Hirschowitz, Hammer, Giacchetti, Klirns, Levine; Elsevier p. 4 - 8).
Die Rezeptorbindungsstudien wurden gemäß dem nachstehenden Literaturzitat ausgeführt [A. Closse, H. Bittiger, D. Langenegger und A. Wahner; Naunyn-Schmiedeberg's Arch. Pharmacol. 335, 372 - 377 (1987)].
Radioligand: L(+)cis-[2-Methyl-³H]-N,N,N-trimethyl-1, 3-dioxolan-4-methanammonium-jodid NET-647, Fa. NEN (New England Nuclear DU PONT). Organ: Cerebraler Cortex (Ratte)

Assay [2] deals with Kaninchen. In words: Cholinomimetic in vivo activity by EEG (theta wave increase). The text has this:
Die cholinomimetische in-vivo-Wirksamkeit von (+)-(Propargyloxymethyl)-1-aza-bicyclo- [2.2.2]octan wurde am Kaninchen mittels EEG (Thetawellenzunahme) nachgewiesen.

Assay [3] has as its target T1, human-m₁-Rezeptorsubtyp (Homo sapiens, UniProt P11229).
T1 construct: expressed in transfected cells; host or cells: CHO cells
T1 sequence (P11229 1-460): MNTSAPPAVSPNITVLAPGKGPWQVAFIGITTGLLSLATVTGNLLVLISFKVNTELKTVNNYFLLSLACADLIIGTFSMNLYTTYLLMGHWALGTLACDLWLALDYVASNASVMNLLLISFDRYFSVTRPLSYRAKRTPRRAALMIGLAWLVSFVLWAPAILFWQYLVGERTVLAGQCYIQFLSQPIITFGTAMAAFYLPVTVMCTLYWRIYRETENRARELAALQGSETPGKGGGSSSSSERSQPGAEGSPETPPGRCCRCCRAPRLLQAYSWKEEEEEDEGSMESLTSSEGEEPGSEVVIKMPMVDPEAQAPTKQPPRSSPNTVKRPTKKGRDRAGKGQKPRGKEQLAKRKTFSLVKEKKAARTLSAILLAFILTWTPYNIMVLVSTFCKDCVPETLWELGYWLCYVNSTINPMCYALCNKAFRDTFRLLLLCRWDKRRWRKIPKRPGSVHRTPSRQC
Description: Stimulation of phosphatidylinositol turnover in CHO cell cultures. The following applies: CHO-Zellkulturen mit human-m₁-Rezeptorsubtyp; gegenüber dem Razemat und dem (-)-Enantiomer. The format is cell-based.

Assay [4] concerns the target T2, Muskarinsubtypen M₂ (Rattus norvegicus, UniProt P10980).
T2 sequence (P10980 1-466): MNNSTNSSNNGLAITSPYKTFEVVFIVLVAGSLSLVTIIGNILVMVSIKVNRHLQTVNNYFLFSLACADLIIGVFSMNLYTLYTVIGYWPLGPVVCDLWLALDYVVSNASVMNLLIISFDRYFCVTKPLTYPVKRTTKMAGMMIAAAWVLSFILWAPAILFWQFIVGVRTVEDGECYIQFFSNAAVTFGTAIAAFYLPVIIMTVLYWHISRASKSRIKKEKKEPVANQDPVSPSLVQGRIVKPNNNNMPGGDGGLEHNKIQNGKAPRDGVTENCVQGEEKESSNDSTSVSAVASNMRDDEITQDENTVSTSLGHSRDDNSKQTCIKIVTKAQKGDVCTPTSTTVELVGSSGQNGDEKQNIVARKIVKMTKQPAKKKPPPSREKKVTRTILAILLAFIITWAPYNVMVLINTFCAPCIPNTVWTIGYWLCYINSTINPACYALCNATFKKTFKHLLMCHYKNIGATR
In words: Binding studies at muscarinic subtypes. The following applies: gegenüber dem Razemat und dem (-)-Enantiomer. Further details: species or system Ratte.

Assay [5] deals with T3, Muskarinsubtypen M₁ (Rattus norvegicus, UniProt P08482).
T3 sequence (P08482 1-460): T1 sequence (P11229 1-460) with A5V, T254S, P309S, R320K, A337G, I413V
Description: Binding studies at muscarinic subtypes. As to conditions: gegenüber dem Razemat und dem (-)-Enantiomer. Further details: species or system Ratte.

Assay [6] deals with Muskarinsubtypen M₃ (Rattus norvegicus, UniProt P08483). In words: Binding studies at muscarinic subtypes. On the set-up: species or system Ratte. The following applies: gegenüber dem Razemat und dem (-)-Enantiomer.
Chain of Muskarinsubtypen M₃ (P08483 whole entry): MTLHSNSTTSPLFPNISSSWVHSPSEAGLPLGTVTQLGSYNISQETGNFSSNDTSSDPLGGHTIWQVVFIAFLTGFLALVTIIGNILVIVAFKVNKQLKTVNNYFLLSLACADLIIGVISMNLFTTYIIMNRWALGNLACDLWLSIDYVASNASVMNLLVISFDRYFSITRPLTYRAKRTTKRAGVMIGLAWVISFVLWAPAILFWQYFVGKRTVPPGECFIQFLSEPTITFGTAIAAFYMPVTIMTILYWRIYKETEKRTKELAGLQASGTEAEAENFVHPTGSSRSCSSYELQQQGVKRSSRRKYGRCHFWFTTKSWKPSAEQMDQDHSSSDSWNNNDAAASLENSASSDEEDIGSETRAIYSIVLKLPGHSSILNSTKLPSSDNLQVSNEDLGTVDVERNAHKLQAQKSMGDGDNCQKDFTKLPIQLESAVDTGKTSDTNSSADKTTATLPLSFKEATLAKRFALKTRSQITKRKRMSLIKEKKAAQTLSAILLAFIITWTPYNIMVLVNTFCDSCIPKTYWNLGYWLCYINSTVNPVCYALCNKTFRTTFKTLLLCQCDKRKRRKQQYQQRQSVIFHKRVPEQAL

`c1ccc(COC2CN3CCC2CC3)cc1` (racemic) [Beispiel 4] gave a Ki in assay [1] of 229 nM.
With `C#CCOCC1CN2CCC1CC2` (single isomer, unassigned; (+)) [(+)-3-(Propargyloxymethyl)-1-azabicyclo[2.2.2]octan], the “cholinomimetische in-vivo-Wirksamkeit (Thetawellenzunahme)” value in assay [2] was “nachgewiesen”. The “Stimulation des Phosphatidylinositol-turnovers” value in assay [3] is “stärker wirksam”. The “Bindungsstudien M₂: Wirksamkeit in vitro” value in assay [4] is listed as “stärker wirksam”. In addition, in assay [5], the “Bindungsstudien M₁: Wirksamkeit in vitro” value is given as “stärker wirksam”. In assay [6], the “Bindungsstudien M₃: Wirksamkeit in vitro” value is “stärker wirksam”.
In assay [1], `c1cncc(OC2CN3CCC2CC3)c1` (centres unmarked) [Beispiel 1] returned a Ki of 120 nM.
Same read-out and setting: the value for `c1ccc(OC2CN3CCC2CC3)cc1` (centres unmarked) [Beispiel 9, 3-Phenoxy-1-azabicyclo[2.2.2]octan] was 89 nM.
